Assay results: patent US20200129499A1, “COMBINATION OF TASQUINIMOD OR A PHARMACEUTICALLY ACCEPTABLE SALT THEREOF AND A PD-1 AND/OR PD-L1 INHIBITOR, FOR USE AS A MEDICAMENT” (ACTIVE BIOTECH AB, priority 2015, published 2020)
“Also recorded” adds a separate entry of the source.

Assays:
MBT-2 tumors [1] = assay: Subcutaneous MBT-2 tumor model, early or established tumors (Examples 3 and 4); format: in vivo, mouse
Procedure: FIG. 4: Treatment with tasquinimod had no effect on established MBT-2 tumor growth and induced an alteration in the profile of PD-1/PD-L1 axis. (A) Growth curves and (B) tumor weight of MBT-2 tumors treated with tasquinimod at 30 mg/kg (oral gavage, twice daily) after randomization at day 11 post tumor-cell inoculation (n=12). Mice were sacrificed. Tumors were harvested, digested and then subjected to surface staining. (C) PD-L1 expression on myeloid cells treated with vehicle (control) or tasquinimod 30 mg/kg at day 15. (D) Quantitative data of the Median Fluorescence Intensity of PD-L1 gated on infiltrating myeloid cells CD1 1b+ (*, P<0.05; Mann-Whitney test, n=5 mice per group).
FIG. 5: 106 MBT-2 cells were injected subcutaneously in C3H/HeNRj mice. Animals were treated with Anti-PD-L1 or its isotype (IgG2B) at the dose of 200 μg by intraperitoneal injection. Treatment started at (A) day 1 (Student test; left panel: *, P=0.0223), or (B) day 11 post tumor cell inoculation. […]
MBT-2 cells (1×106) were injected subcutaneously into the flanks of mice and resulting tumors were allowed to grow for 21 days. Tumors were measured by caliper and tumor volume (mm3) was calculated using the formula=(Width) 2×Length 12. […]

MBT-2 tumors [2] = assay: Subcutaneous MBT-2 tumor growth in mice, initial combination study (Example 1); format: in vivo, mouse
Procedure: Six to seven-week old C3H/HeN male mice were purchased from JANVIER Labs. MBT-2, a mouse bladder cancer cell line (M. S. Soloway., Intravesical and systemic chemotherapy in the management of superficial bladder cancer, Urol. Clin. North Am. 11 (4):623-635, 1984), was provided from JCRB Cell Bank and was cultured in Eagle's minimal essential medium (Life Technologies) supplemented with 10% fetal bovine serum.
1×10^6 cells were injected subcutaneously into the flanks of mice and were allowed to grow until tumors reached a volume between 40 and 130 mm^3 (around day 10-1 1 post tumor cell inoculation).
Tumor volumes in mm^3 were assessed by caliper measurements and were calculated by the formula=(Width)^2×Length 12.
As mentioned in Table 2, the mice were treated with tasquinimod (30 mg/kg) p.o. (per os, i.e. oral administration) twice a day. For the blockade of PD-L1, 200 μg of the […] (clone 10F.9G2; Bio-XCell) was administered i.p. (intraperitoneally) to mice every 3 days. All studies were approved by the Bioethics committee of IPSEN (CE2A) and by the French Ministry of Agriculture and Fisheries' veterinary services.

COc1cccc2c1c(O)c(C(=O)N(C)c1ccc(C(F)(F)F)cc1)c(=O)n2C [tasquinimod, 4-hydroxy-5-methoxy-N,1-dimethyl-2-oxo-N-[4-(trifluoromethyl)phenyl]-1,2-dihydroquinoline-3-carboxamide]
tumor growth (tumor volume, mean±SEM) (MBT-2 tumors [1]; established tumors, treatment from day 8, FIG. 6B): 343±67 mm3
tumor growth of established MBT-2 tumors (MBT-2 tumors [1]; treatment started at tumor volume 50-100 mm3, tasquinimod 30 mg/kg twice daily, Anti-PD-L1 200 μg i.p.): no effect; also recorded: lost its ability to inhibit tumor growth
Average of tumor volumes (MBT-2 tumors [2]; day 0 post tumor cell inoculation (before treatment)): 0 mm^3
Average of tumor volumes (MBT-2 tumors [2]; day 10 post tumor cell inoculation): 49 mm^3
Average of tumor volumes (MBT-2 tumors [2]; day 11 post tumor cell inoculation): 61 mm^3
Average of tumor volumes (MBT-2 tumors [2]; day 13 post tumor cell inoculation): 180 mm^3
Average of tumor volumes (MBT-2 tumors [2]; day 14 post tumor cell inoculation): 225 mm^3
Average of tumor volumes (MBT-2 tumors [2]; day 15 post tumor cell inoculation): 309 mm^3
Average of tumor volumes (MBT-2 tumors [2]; day 17 post tumor cell inoculation): 390 mm^3
impact on tumor growth of MBT-2 tumors (MBT-2 tumors [2]; tasquinimod 30 mg/kg p.o. twice a day, antibody 200 μg i.p. every 3 days, from day 10-11): slight non-significant impact
